Legend:
[1] = biological target: Receptor-type tyrosine-protein kinase FLT3 (Homo sapiens) (UniProt P36888); settings: at 20 µM
[2] = biological target: T1, Receptor-type tyrosine-protein kinase FLT3 (Homo sapiens, UniProt P36888)
T1 sequence (P36888 whole entry): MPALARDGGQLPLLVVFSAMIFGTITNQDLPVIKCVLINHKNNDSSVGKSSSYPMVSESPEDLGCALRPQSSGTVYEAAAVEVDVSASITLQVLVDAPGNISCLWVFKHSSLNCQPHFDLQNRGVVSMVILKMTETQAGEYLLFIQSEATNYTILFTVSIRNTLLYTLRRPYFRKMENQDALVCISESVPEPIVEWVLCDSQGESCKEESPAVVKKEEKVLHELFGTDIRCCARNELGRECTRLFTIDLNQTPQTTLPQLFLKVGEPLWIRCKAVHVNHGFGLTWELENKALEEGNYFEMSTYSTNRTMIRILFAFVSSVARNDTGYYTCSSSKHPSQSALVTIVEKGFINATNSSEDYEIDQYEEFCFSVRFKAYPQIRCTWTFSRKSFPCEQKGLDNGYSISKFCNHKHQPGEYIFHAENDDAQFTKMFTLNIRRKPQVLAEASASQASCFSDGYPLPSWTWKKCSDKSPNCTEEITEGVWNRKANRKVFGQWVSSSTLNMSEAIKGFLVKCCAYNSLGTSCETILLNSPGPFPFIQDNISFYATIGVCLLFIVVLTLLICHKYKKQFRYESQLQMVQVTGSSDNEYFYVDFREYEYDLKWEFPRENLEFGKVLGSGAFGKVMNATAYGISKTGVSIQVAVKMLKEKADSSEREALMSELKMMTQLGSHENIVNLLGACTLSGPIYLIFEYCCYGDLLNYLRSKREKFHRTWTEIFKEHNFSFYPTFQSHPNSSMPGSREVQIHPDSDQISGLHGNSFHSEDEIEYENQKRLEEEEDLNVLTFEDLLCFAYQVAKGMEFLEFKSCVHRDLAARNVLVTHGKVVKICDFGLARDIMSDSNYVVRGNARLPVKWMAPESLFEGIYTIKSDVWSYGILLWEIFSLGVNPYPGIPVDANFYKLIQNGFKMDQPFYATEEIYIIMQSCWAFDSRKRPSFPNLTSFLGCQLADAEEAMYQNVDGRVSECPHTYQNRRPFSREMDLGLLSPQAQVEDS

[3] = system: Receptor-type tyrosine-protein kinase FLT3 (Homo sapiens), P36888 [UNDEFINED MUTATION]; assay: Inhibition of FLT3 ITD mutant in human MV4-11 cells assessed as cell growth inhibition after 48 hrs by CellTiter-Glo assay; format: cell-based
[4] = system: Receptor-type tyrosine-protein kinase FLT3 (Homo sapiens), P36888 [UNDEFINED MUTATION]; assay: Inhibition of FLT3 ITD mutant in human MOLM14 cells assessed as cell growth inhibition after 48 hrs by CellTiter-Glo assay; format: cell-based; settings: MOLM-14
[5] = system: Receptor-type tyrosine-protein kinase FLT3 (Homo sapiens), P36888 [UNDEFINED MUTATION]; assay: Inhibition of FLT3 ITD mutant (unknown origin) expressed in mouse BAF3 cells assessed as cell growth inhibition after 48 hrs by CellTiter-Glo assay; format: cell-based
[6] = system: Receptor-type tyrosine-protein kinase FLT3 (Homo sapiens), P36888 [UNDEFINED MUTATION]; assay: Inhibition of FLT3 ITD D835V mutant (unknown origin) expressed in mouse BAF3 cells assessed as cell growth inhibition after 48 hrs by CellTiter-Glo assay; format: cell-based
[7] = system: Receptor-type tyrosine-protein kinase FLT3 (Homo sapiens), P36888 [UNDEFINED MUTATION]; assay: Inhibition of FLT3 ITD F691L mutant (unknown origin) expressed in mouse BAF3 cells assessed as cell growth inhibition after 48 hrs by CellTiter-Glo assay; format: cell-based

| SMILES | inhibition [1] [%] | IC50 [2] [nM] | further results |
| --- | --- | --- | --- |
| N#CCc1ccc(-c2cnc3ccccn23)cc1 | 20 |  |  |
| Cc1ccc(-c2cnc3cc(-c4cccs4)ccn23)cc1 | 89.7 |  |  |
| Fc1ccc(-c2cnc3cc(-c4ccccc4)ccn23)cc1 | 98.8 | 16 | GI50 [3]: 706 nM; GI50 [4]: 513 nM; GI50 [5]: 333 nM |
| N#CCc1ccc(-c2cnc3cc(-c4ccccc4)ccn23)cc1 | 96.4 | 550 |  |
| N#Cc1cc(-c2cnc3cc(-c4ccccc4)ccn23)ccc1F | 94.1 | 230 |  |
| COc1ccc(-c2ccn3ccnc3c2)cc1 | 33.9 |  |  |
| c1ccc(-c2ccn3ccnc3c2)cc1 | 0 |  |  |
| c1coc(-c2ccn3ccnc3c2)c1 | 67.1 |  |  |
| N#CCc1ccc(-c2cnc3cc(-c4cccs4)ccn23)cc1 | 98 | 51 |  |
| COc1ccc(-c2ccn3c(-c4ccc(F)cc4)cnc3c2)cc1 | 98.6 | 78 |  |
| Cc1ccc(-c2cnc3ccccn23)cc1 | 77 |  |  |
| Fc1ccc(-c2cnc3cc(-c4ccco4)ccn23)cc1 | 99.3 | 41 | GI50 [6]: > 1000 nM; GI50 [3]: 830 nM; GI50 [4]: 712 nM; GI50 [7]: > 1000 nM; GI50 [5]: 484 nM |
| COc1ccc(-c2ccn3c(-c4ccc(CC#N)cc4)cnc3c2)cc1 | 91 | 430 |  |
| c1csc(-c2ccn3ccnc3c2)c1 | 79.8 |  |  |
| Fc1ccc(-c2cnc3ccccn23)cc1 | 94.8 | 480 |  |
| COc1ccc(-c2ccn3c(-c4ccc(C)cc4)cnc3c2)cc1 | 91.4 | 440 |  |
| N#Cc1cc(-c2cnc3ccccn23)ccc1F | 61.3 |  |  |
| Cc1ccc(-c2cnc3cc(-c4ccco4)ccn23)cc1 | 95.5 | 160 |  |
| N#Cc1cc(-c2cnc3cc(-c4cccs4)ccn23)ccc1F | 29.7 |  |  |
| Clc1ccn2ccnc2c1 | 23.8 |  |  |
| c1ccn2ccnc2c1 | 14.6 |  |  |
| N#CCc1ccc(-c2cnc3cc(-c4ccco4)ccn23)cc1 | 97.8 | 190 |  |
| Cc1ccc(-c2cnc3cc(-c4ccccc4)ccn23)cc1 | 94.1 | 300 |  |
| N#Cc1cc(-c2cnc3cc(-c4ccco4)ccn23)ccc1F | 98.7 | 470 |  |
| COc1ccc(-c2ccn3c(-c4ccc(F)c(C#N)c4)cnc3c2)cc1 | 81.4 |  |  |

Source: ChEMBL document CHEMBL3414435, “Computer aided drug discovery of highly ligand efficient, low molecular weight imidazopyridine analogs as FLT3 inhibitors” (Eur J Med Chem, 2015)
